Measured values: US6767569B1, “Surface decontamination of cooked sausage and processed meat and poultry products” (priority 1999, dated 2004)
Values joined by “and” are separate entries in the source; they are usually repeats but may differ in a detail not shown here. Equal entries are not always repeated.

What was measured:
Listeria species = assay: Dip treatment of inoculated frankfurters, qualitative (enrichment) procedure with TECRA Listeria ELISA; format: cell-based, Listeria monocytogenes; parameters: key: POS: Positive indicates that at least one colony grew during the test; NEG: Negative indicated that no colonies grew
Description: Following air drying, one frank per treatment was placed in a sterile Stomacher bag and analyzed quantitatively for residual L. monocytogenes populations. The remaining two franks were retained in sterile Stomacher bags and used for qualitative analysis, if necessary (in the event no surviving cells were detected using quantitative procedures).
The plating techniques used were capable of detection down to 5 cfu/ml (1 colony/0.2 ml) for the spiral plating method and 0.5 cfu/ml for the spread plating method (1 colony/2 ml). In the event that no surviving L. monocytogenes cells were observed using direct plating procedures, two franks per treatment were evaluated using qualitative (enrichment) procedures. A 10 mL aliquot of the retained homogenate was placed added to 90 mL of UVM broth to achieve a 1:10 dilution. These samples were shaken by hand for 1 minute and incubated at 30° C. for 24 h. Following this primary enrichment, 0.1 mL was transferred to 10 mL of Fraser broth and incubated at 30° C. for 24 h. This secondary enrichment was then used to perform an ELISA screening procedure (TECRA Listeria species assay). Results of this qualitative analysis were used to indicate whether the sample was “positive” or “negative” for the presence of Listeria species.
The target inoculation level before treatment was 1,000 CFU/frank. It can be seen that a 2 second treatment is sufficient to remove most, but not all Listeria from the franks. A 10 second treatment reduces the Listeria count below the detection limit of the quantitative assessment procedures, although a few colonies were detected in the qualitative procedure. […] Therefore, the true population of any samples with a population of <90 CFU/frank could not be specifically determined.

[1] = Stability of peracetic acid solutions; format: physicochemical
Description: Peracetic acid solutions were prepared in deionized water as for Example 2 to nominal concentrations of 1000 and 2000 mg/L. Actual peracetic acid concentrations were measured at 0 and 30 minutes at around 25° C. and 50° C.

E. coli = format: cell-based; conditions: E. coli; 35 °C, 24 hrs
Description: (§1) Each strain was subcultured on tryptic soy agar (TSA, DIFCO, Detroit, Mich.) slants and stored at 4° C. Strains were individually transferred into 100 mL of sterile 2× BHI (DIFCO, Detroit, Mich.) and incubated at 35° C. for 24 hr. to reach ca. 10^9 colony forming units/mL (CFU/mL). Then, 25 mL of each strain of E. coli was transferred into a sterile bottle (mixture X), and 25 mL of each strain of each strain of Salmonella spp. was transferred into a sterile bottle (mixture Y). Mixtures X and Y were maintained separately throughout the test.
(§2) Serial dilutions were made using Butterfields' Phosphate Buffer (BPB, Sigma, St. Louis, Mo.) in 1 mL aliquots prior to inoculation. BPB was prepared as a stock solution by adding 34 g Of KH2PO4 to 500 mL of distilled water. The pH was adjusted to 7.2, and the solution was brought to a volume of 1 L. The BPB stock was autoclaved for 20 min. at 121° C. and 15 lbs. of pressure. […] For glacial acetic acid (U.S.P.-F.C.C., J. T. Baker, Phillipsburg, N.J.), starting concentrations and serial dilutions were 50%, 25%, 12.5%, 6.25%, 3.12%, 1.56%, 0.78%, 0.39%, and a control (no treatment, buffer and culture). […] For peracetic acid 35.0% (STERIS 20™, STERIS Corporation, Mentor, Ohio), starting concentrations and serial dilutions were 17.5%, 8.75%, 4.38%, 2.19%, 1.09%, 0.55%, 0.30%, 0.14%, 0.07%, 0.03%, and a control. For liquid smoke (Hickory Specialties, Brentwood, Tenn.) starting concentrations and serial dilutions were 50%, 25%, 12.5%, 6.25%, 3.12%, 1.56%, 0.78%, 0.39%, and a control. Dilutions were prepared with deionized water.
(§3) The test tubes were incubated at 35° C. for 24 hrs. and turbidity was evaluated using McFarland equivalence standards, to study the bacteriostatic properties of the diluted solutions. In addition, each dilution was plated to evaluate the bactericidal properties of, the diluted solutions. Using a 1 μL sterile loop, each concentration and control for either microorganism mixture was streaked on plate count agar (PCA, DIFCO, Detroit, Mich.). A selective agar was also used for each mixture, eosine methylene blue agar (EMB, DIFCO, Detroit, Mich.) for E. coli and xylose lysine decarboxylase agar (XLD, DIFCO, Detroit,Mich.) for Salmonella spp. All plates were incubated for 24 hrs. at 35° C. and were inspected for growth or no growth.

Salmonella spp. = format: cell-based; conditions: 35 °C, 24 hrs
Description: as §1, §2, §3

[2] = nominal 1000 mg/L, 26-29 °C, pH 2.7
[3] = nominal 1000 mg/L, 50 °C, pH 2.7
[4] = nominal 2000 mg/L, 26-29 °C, pH 2.6
[5] = nominal 2000 mg/L, 50 °C, pH 2.6

SMILES: CC(=O)OO [peracetic acid]
- POS/NEG (qualitative analysis after treatment) (Listeria species; PAA 100 ppm (actual 114 ppm), 2 sec exposure, 2 sec rinse): POS
- POS/NEG (qualitative analysis after treatment) (Listeria species; PAA 100 ppm (actual 114 ppm), 10 sec exposure, 10 sec rinse): POS
- POS/NEG (qualitative analysis after treatment) (Listeria species; PAA 500 ppm (actual 572 ppm), 2 sec exposure, 2 sec rinse): POS
- POS/NEG (qualitative analysis after treatment) (Listeria species; PAA 500 ppm (actual 572 ppm), 10 sec exposure, 10 sec rinse): POS and NEG
- POS/NEG (qualitative analysis after treatment) (Listeria species; PAA 1000 ppm (actual 1146 ppm), 2 sec exposure, 2 sec rinse): NEG and POS
- POS/NEG (qualitative analysis after treatment) (Listeria species; PAA 1000 ppm (actual 1146 ppm), 10 sec exposure, 10 sec rinse): NEG and POS
- stability of the solutions over the 30 minute period ([1]; 1000 and 2000 mg/L nominal, around 25 °C and 50 °C): relatively stable
- Concentration at 0 mins [1, 2]: 1347 µg/mL
- Concentration at 30 mins [1, 2]: 1355 µg/mL
- Concentration at 0 mins [1, 3]: 1310 µg/mL
- Concentration at 30 mins [1, 3]: 1284 µg/mL
- Concentration at 0 mins [1, 4]: 2016 µg/mL
- Concentration at 30 mins [1, 4]: 2017 µg/mL
- Concentration at 0 mins [1, 5]: 1937 µg/mL
- Concentration at 30 mins [1, 5]: 1959 µg/mL
- MIC (%) (E. coli): 0.137% and 0.14%
- MIC (%) (Salmonella spp.): 0.137% and 0.14%
